The target in one experiment is T1, JAK1 (Homo sapiens, UniProt P23458).
T1 construct: purchased Carna Biosciences
In words: JAK biochemical microfluidic assay (Caliper EZ Reader), JAK1. The following applies: 1 mM ATP; head prints (5 nM). How it is done: (§1) JAK activity was determined in the reaction buffer 50 mM HEPES, 0.01% Brij35, 10 mM MgCl2, 2 mM DTT by a microfluidic assay. The phosphorylation of a FAM labeled peptide substrate was monitored in the Caliper EZ Reader II (Perkin Elmer). The assay condition for each batch of enzyme (Carna Biosciences) was optimized to obtain 10% conversion rate of peptide substrate.
(§2) The test compounds were dissolved in DMSO to a stock concentration of 10 mM. Three-fold serially diluted compounds with top concentration of 5 μM were pre-incubated with JAK1, JAK2 or TYK2 for 10 min at ambient temperature. The final DMSO concentration of assay mixture was 1%. […] The reaction was stopped by adding 50 mM EDTA.
(§3) The percent inhibition was calculated by the following formula. % Inhibition=(Conversionmax−Conversionsample)/(Conversionmax−Conversionmin)*100 Conversionmax means the conversion rate in the positive well without addition of compound • […] means the conversion rate in the well without addition of enzyme • Conversionsample means the conversion rate of test compounds
(§4) The dose-response (percent inhibition) curve was plotted and IC50 values were determined by GraphPad software.

For a further experiment, the target named is T2, JAK2 (Homo sapiens, UniProt O60674).
T2 construct: purchased Carna Biosciences
T2 sequence (O60674 whole entry): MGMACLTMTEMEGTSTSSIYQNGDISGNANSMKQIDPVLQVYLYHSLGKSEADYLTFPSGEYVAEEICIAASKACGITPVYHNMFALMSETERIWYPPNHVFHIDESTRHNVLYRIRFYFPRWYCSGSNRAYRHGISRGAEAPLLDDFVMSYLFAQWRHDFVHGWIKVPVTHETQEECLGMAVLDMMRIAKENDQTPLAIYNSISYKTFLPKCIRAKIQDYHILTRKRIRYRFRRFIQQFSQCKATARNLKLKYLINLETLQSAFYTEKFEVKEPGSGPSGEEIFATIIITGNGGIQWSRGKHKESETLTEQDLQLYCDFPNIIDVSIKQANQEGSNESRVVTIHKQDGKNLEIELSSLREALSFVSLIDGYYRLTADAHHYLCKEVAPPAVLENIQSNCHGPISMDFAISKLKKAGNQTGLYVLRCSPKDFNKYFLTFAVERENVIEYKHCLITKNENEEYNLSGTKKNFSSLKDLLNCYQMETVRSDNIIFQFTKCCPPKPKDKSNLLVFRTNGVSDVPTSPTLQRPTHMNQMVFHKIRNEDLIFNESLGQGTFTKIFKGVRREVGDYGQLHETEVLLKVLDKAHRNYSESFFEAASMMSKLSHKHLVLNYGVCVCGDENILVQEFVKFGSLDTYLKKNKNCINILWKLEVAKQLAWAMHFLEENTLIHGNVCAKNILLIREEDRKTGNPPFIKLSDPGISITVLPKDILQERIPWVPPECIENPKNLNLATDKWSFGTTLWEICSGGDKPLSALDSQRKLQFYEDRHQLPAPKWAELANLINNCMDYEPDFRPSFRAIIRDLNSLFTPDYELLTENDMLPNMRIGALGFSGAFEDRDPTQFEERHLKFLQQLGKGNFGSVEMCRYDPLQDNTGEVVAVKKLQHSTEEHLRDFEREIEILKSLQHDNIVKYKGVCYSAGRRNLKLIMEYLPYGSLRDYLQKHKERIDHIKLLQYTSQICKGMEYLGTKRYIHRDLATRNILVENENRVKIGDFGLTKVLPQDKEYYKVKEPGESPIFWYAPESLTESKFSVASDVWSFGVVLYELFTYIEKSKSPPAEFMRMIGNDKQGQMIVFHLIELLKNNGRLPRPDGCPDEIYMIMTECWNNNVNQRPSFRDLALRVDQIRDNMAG
In words: JAK biochemical microfluidic assay (Caliper EZ Reader), JAK2. The following applies: 1 mM ATP; head prints (0.25 nM). How it is done:
as §1, §2, §3, §4

T1 sequence (P23458 whole entry): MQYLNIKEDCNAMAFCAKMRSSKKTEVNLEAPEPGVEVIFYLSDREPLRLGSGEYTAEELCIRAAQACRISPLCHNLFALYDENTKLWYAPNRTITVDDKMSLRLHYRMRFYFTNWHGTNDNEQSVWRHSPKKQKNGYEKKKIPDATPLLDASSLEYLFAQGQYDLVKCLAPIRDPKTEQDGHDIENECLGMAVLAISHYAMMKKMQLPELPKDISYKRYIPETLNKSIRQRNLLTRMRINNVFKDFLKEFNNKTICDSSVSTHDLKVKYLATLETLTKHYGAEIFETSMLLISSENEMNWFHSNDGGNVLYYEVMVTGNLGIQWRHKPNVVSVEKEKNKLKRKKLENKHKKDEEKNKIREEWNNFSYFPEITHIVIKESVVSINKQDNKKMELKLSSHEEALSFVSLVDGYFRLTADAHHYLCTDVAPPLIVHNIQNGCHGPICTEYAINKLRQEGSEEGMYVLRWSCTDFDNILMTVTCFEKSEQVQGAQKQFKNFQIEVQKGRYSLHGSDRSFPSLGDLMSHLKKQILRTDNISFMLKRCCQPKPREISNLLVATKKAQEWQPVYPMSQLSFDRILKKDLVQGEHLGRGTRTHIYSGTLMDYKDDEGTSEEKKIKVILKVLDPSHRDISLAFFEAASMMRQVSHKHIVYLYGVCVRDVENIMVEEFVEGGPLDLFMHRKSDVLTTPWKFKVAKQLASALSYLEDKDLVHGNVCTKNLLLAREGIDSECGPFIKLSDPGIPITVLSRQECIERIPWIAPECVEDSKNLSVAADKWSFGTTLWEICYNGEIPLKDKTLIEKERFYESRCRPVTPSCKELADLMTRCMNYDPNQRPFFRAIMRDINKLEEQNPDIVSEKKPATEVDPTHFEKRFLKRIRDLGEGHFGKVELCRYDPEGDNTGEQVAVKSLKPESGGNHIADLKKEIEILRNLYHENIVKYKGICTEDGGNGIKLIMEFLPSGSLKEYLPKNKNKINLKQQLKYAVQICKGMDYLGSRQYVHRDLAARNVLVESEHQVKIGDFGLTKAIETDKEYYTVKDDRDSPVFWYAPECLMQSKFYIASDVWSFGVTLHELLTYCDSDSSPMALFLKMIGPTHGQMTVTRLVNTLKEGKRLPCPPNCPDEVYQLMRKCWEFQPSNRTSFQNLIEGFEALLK

For the molecule `O=C(NC12CC(n3cnc4cnc5[nH]ccc5c43)(C1)C2)C1CC1` [Example 12, N-(3-(Imidazo[4,5-d]pyrrolo[2,3-b]pyridin-1(6H)-yl)bicyclo[1.1.1]pentan-1-yl)cyclopropanecarboxamide], the IC50 against JAK1 stood at 35.5 nM.
Same read-out and setting: under `O=C(NC1CC1)NC12CC(n3cnc4cnc5[nH]ccc5c43)(C1)C2` [Example 35, 1-Cyclopropyl-3-(3-(imidazo[4,5-d]pyrrolo[2,3-b]pyridin-1(6H)-yl)bicyclo[1.1.1]pentan-1-yl)urea] stands 235 nM; under `O=C(NC12CC(n3cnc4cnc5[nH]ccc5c43)(C1)C2)c1ccc(Cl)cc1` [Example 15, 4-Chloro-N-(3-(imidazo[4,5-d]pyrrolo[2,3-b]pyridin-1(6H)-yl)bicyclo[1.1.1]pentan-1-yl)benzamide], 82.6 nM; under `CC(C)OC(=O)NC12CC(n3cnc4cnc5[nH]ccc5c43)(C1)C2` [Example 16, Isopropyl (3-(imidazo[4,5-d]pyrrolo[2,3-b]pyridin-1(6H)-yl)bicyclo[1.1.1]pentan-1-yl)carbamate], 64 nM.
Still for that read-out and setting: under `CC(C)CNC(=O)NC12CC(n3cnc4cnc5[nH]ccc5c43)(C1)C2` [Example 36, 1-(3-(Imidazo[4,5-d]pyrrolo[2,3-b]pyridin-1(6H)-yl)bicyclo[1.1.1]pentan-1-yl)-3-isobutylurea] stands 49.5 nM; under `CN(C)S(=O)(=O)NC12CC(n3cnc4cnc5[nH]ccc5c43)(C1)C2` [Example 24, N-(3-(imidazo[4,5-d]pyrrolo[2,3-b]pyridin-1(6H)-yl)bicyclo[1.1.1]pentan-1-yl)-N′-dimethyl-1-sulfonamide], 23 nM.
Turning to `N#CCCNC(=O)NC12CC(n3cnc4cnc5[nH]ccc5c43)(C1)C2` [Example 43, 1-(2-Cyanoethyl)-3-(3-(imidazo[4,5-d]pyrrolo[2,3-b]pyridin-1(6H)-yl)bicyclo[1.1.1]pentan-1-yl)urea], the IC50 against JAK1 was determined as 15.6 nM; against JAK2, 223 nM.
On the same counts, the results for `CC(C)CC(=O)NC12CC(n3cnc4cnc5[nH]ccc5c43)(C1)C2` [Example 8, N-(3-(Imidazo[4,5-d]pyrrolo[2,3-b]pyridin-1(6H)-yl)bicyclo[1.1.1]pentan-1-yl)-3-methylbutanamide] are 47.4 nM and 328 nM.
In the case of `COC1CN(C(=O)NC23CC(n4cnc5cnc6[nH]ccc6c54)(C2)C3)C1` [Example 38, N-(3-(Imidazo[4,5-d]pyrrolo[2,3-b]pyridin-1(6H)-yl)bicyclo[1.1.1]pentan-1-yl)-3-methoxyazetidine-1-carboxamide], the IC50 was 389 nM on JAK1 and 3300 nM against JAK2.
On the same counts, the results for `CCCS(=O)(=O)NC12CC(N(C)c3ncnc4[nH]ccc34)(C1)C2` [Example 49, N-(3-(Methyl(7H-pyrrolo[2,3-d]pyrimidin-4-yl)amino)bicyclo[1.1.1]pentan-1-yl)propane-1-sulfonamide] are over 5000 nM and over 5000 nM.
`CCCS(=O)(=O)NC12CC(n3c(C)nc4cnc5[nH]ccc5c43)(C1)C2` [Example 48, N-(3-(2-methylimidazo[4,5-d]pyrrolo[2,3-b]pyridin-1(6H)-yl)bicyclo[1.1.1]pentan-1-yl)propane-1-sulfonamide]: the IC50 was found to be 13 nM against JAK1 and 244 nM against JAK2.
On the same counts, the results for `O=C(NC12CC(n3cnc4cnc5[nH]ccc5c43)(C1)C2)OCC1CC1` [Example 19, Cyclopropylmethyl (3-(imidazo[4,5-d]pyrrolo[2,3-b]pyridin-1(6H)-yl)bicyclo[1.1.1]pentan-1-yl)carbamate] are 51.3 nM and 578 nM.
In the case of `N#CCC(=O)NC12CC(n3cnc4cnc5[nH]ccc5c43)(C1)C2` [Example 11, 2-Cyano-N-(3-(imidazo[4,5-d]pyrrolo[2,3-b]pyridin-1(6H)-yl)bicyclo[1.1.1]pentan-1-yl)acetamide], the values for the IC50 at JAK1 and on JAK2 were 11.7 nM and 166 nM, respectively.
The like results for `CC(C)(C#N)CNC(=O)NC12CC(n3cnc4cnc5[nH]ccc5c43)(C1)C2` [Example 40, 1-(2-Cyano-2-methylpropyl)-3-(3-(imidazo[4,5-d]pyrrolo[2,3-b]pyridin-1(6H)-yl)bicyclo[1.1.1]pentan-1-yl)urea] were, in that order, 49.4 nM and 355 nM.
On the same counts, the results for `CCCNC(=O)NC12CC(n3cnc4cnc5[nH]ccc5c43)(C1)C2` [Example 34, 1-(3-(Imidazo[4,5-d]pyrrolo[2,3-b]pyridin-1(6H)-yl)bicyclo[1.1.1]pentan-1-yl)-3-propylurea] are 25.4 nM and 199 nM.
As for `Cn1cc(S(=O)(=O)NC23CC(n4cnc5cnc6[nH]ccc6c54)(C2)C3)cn1` [Example 29, N-(3-(imidazo[4,5-d]pyrrolo[2,3-b]pyridin-1(6H)-yl)bicyclo[1.1.1]pentan-1-yl)-1-methyl-1H-pyrazole-4-sulfonamide], the values for the IC50 against JAK1 and against JAK2 were 90.5 nM and 992 nM, respectively.
On the same counts, the results for `CCCS(=O)(=O)NC12CC(n3c([C@@H](C)O)nc4cnc5[nH]ccc5c43)(C1)C2` [Example 47, (R)—N-(3-(2-(1-hydroxyethyl)imidazo[4,5-d]pyrrolo[2,3-b]pyridin-1(6H)-yl)bicyclo[1.1.1]pentan-1-yl)propane-1-sulfonamide] are 48.7 nM and 1110 nM.
The like results for `N#CCS(=O)(=O)NC12CC(n3cnc4cnc5[nH]ccc5c43)(C1)C2` [Example 33, 1-Cyano-N-(3-(imidazo[4,5-d]pyrrolo[2,3-b]pyridin-1(6H)-yl)bicyclo[1.1.1]pentan-1-yl)methanesulfonamide] were, in that order, 14.4 nM and 146 nM.
On the same counts, the results for `CNS(=O)(=O)C[C@H]1C[C@@H](n2cnc3cnc4[nH]ccc4c32)C1` [Example 44, 1-(Cis-3-(imidazo[4,5-d]pyrrolo[2,3-b]pyridin-1(6H)-yl)cyclobutyl)-N-methylmethanesulfonamide] are 159 nM and 604 nM.
`CCS(=O)(=O)NC12CC(n3cnc4cnc5[nH]ccc5c43)(C1)C2` [Example 27, N-(3-(imidazo[4,5-d]pyrrolo[2,3-b]pyridin-1(6H)-yl)bicyclo[1.1.1]pentan-1-yl)ethanesulfonamide]: the IC50 against JAK1 stood at 20.2 nM; against JAK2 it was 291 nM.
Regarding `N#CC1CN(S(=O)(=O)C[C@H]2C[C@@H](n3cnc4cnc5[nH]ccc5c43)C2)C1` [Example 45, 1-(((Cis-3-(imidazo[4,5-d]pyrrolo[2,3-b]pyridin-1(6H)-yl)cyclobutyl)methyl)sulfonyl) azetidine-3-carbonitrile], the IC50 against JAK1 came to 15.7 nM; on JAK2 it was 170 nM.
For `CC(C)S(=O)(=O)NC12CC(n3cnc4cnc5[nH]ccc5c43)(C1)C2` [Example 30, N-(3-(imidazo[4,5-d]pyrrolo[2,3-b]pyridin-1(6H)-yl)bicyclo[1.1.1]pentan-1-yl)propane-2-sulfonamide], the figures for the IC50 on JAK1 and against JAK2 were 25.5 nM and 226 nM, respectively.
`CCN(C)S(=O)(=O)NC12CC(n3cnc4cnc5[nH]ccc5c43)(C1)C2` [Example 25, N-(3-(imidazo[4,5-d]pyrrolo[2,3-b]pyridin-1(6H)-yl)bicyclo[1.1.1]pentan-1-yl)-N′-methyl-N′-ethyl-1-sulfonamide]: on JAK1, the IC50 came out at 26.1 nM.
Still for that read-out and setting: with `NC12CC(n3cnc4cnc5[nH]ccc5c43)(C1)C2` [Example 1j, 3-(Imidazo[4,5-d]pyrrolo[2,3-b]pyridin-1(6H)-yl)bicyclo[1.1.1]pentan-1-amine 2,2,2-trifluoroacetate] the figure was 278 nM.
